Measured values as given in PubChem BioAssay AID624285 (Broad Institute, 2012).
The source made the active and inactive calls.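 How the source made its calls: active means signal-decreasing dose-response curve whose fitted half-maximal concentration is at or below twice the highest valid tested dose; inconclusive means flat fit at 30 to 70% signal loss, or poor fit; inactive means the rest.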

Experiment: cell viability loss after compound exposure – 24 h, luminescence, cherry-picked samples, cytotoxicity control for PDI inhibitor project, dose response (AID 624285)
Conditions: NIH3T3/HeLa viability, CellTiter-Glo ATP luminescence, 24 h; at 35 µM (top of the series)

Structure (SMILES) | activity change, negative = cytotoxicity
COc1cc(CCC(=O)OCC(=O)Nc2cc(S(=O)(=O)N3CCOCC3)ccc2Cl)cc(OC)c1OC | -2.35% (inactive)
COC(=O)c1ccc(COC(=O)CSCC(=O)Nc2ccc(C)cc2C)cc1 | -2.15% (inactive)
CC1Cc2ccccc2N1C(=O)CSc1nnc2sc3ccccc3n12 (configuration not stated) | -7.39% (inactive)
COc1cccc(-n2ccnc2SCC(=O)Nc2cc(OC)ccc2OC)c1 | -15.9% (inactive)
Cc1ccc(CN(c2ccc(C(=O)Nc3ccc4c(c3)OCO4)cc2)S(C)(=O)=O)cc1 | -9.66% (inactive)
O=C(CCN1C(=O)C2C3C=CC(C4CC34)C2C1=O)Oc1ccccc1 (configuration not stated) | -3.44% (inactive)
Cc1cccc(C)c1NC(=O)CN1CCNCC1 | -9.95% (inactive)
CC(C)N(C)C(=O)CCc1nnc(CCc2c[nH]c3ccccc23)o1 | -10.2% (inactive)
CN(C)c1ccc(NC(=O)CN2C(=O)CC(c3ccccc3)=Nc3ccccc32)cc1 | -19.2% (inactive)
O=C(Nc1oc2ccccc2c(=O)c1-c1ccc(Cl)cc1)c1ccco1 | -2.88% (inactive)
CCOC(=O)C1(Cc2ccc(O)cc2)NC(c2ccccc2F)C2C(=O)N(C)C(=O)C21 (configuration not stated) | -15.5% (inactive)
COc1ccc(CCNC(=O)c2cc(S(=O)(=O)N(C)C)ccc2N2CCCC2)cc1 | -14.6% (inactive)
Cc1cc(C)cc(OCC(=O)Nc2ccccc2C(=O)N2CCOCC2)c1 | -11.8% (inactive)
COc1ccc(Cl)cc1NC(=O)COC(=O)C1CC1 | -9.32% (inactive)
CC(=O)C1=C(O)C(=O)N(CCc2c[nH]c3ccccc23)C1c1cccc(O)c1 (configuration not stated) | -10.4% (inactive)
C[C@@H]1O[C@@H](OC[C@H]2O[C@@H](Oc3c(-c4ccc(O)c(O)c4)oc4cc(O)cc(O)c4c3=O)[C@H](O)[C@@H](O)[C@@H]2O)[C@H](O)[C@H](O)[C@H]1O | -2.56% (inactive)
C[C@H]1CN([C@@H](C)CO)C(=O)c2cccc(NS(C)(=O)=O)c2O[C@H]1CN(C)Cc1ccc(Oc2ccccc2)cc1 | -4.63% (inactive)
CC(=O)Nc1cccc(NC(=O)CCc2ccccc2)c1 | -12% (inactive)
COc1ccccc1NS(=O)(=O)c1ccc(C)c(C(=O)NCC2(N(C)C)CCCCC2)c1 | -11.3% (inactive)

Structure (SMILES) | activity change, negative = cytotoxicity
CCOc1ccc(/C=N/OC(C)C(=O)NCc2ccc3c(c2)OCO3)cc1 (configuration not stated) | -5.51% (inactive)
O=c1c(O[C@@H]2O[C@H](CO)[C@@H](O)[C@H](O)[C@H]2O)c(-c2ccc(O)cc2)oc2cc(O)cc(O)c12 | -2.51% (inactive)
CCN1CC2(COC(=O)c3ccccc3N)CCC(OC)C34C5CC6C(OC)CC(O)(C5C6OC)C(O)(C(OC)C23)C14 (configuration not stated) | -11.8% (inactive)
COc1cc(-c2oc3cc(O)cc(O)c3c(=O)c2O[C@@H]2O[C@H](COC3O[C@@H](C)[C@H](O)[C@@H](O)[C@H]3O)[C@@H](O)[C@H](O)[C@H]2O)ccc1O (some centres not stated) | -2.55% (inactive)
Cn1nnnc1SCC(=O)Nc1cc(C(F)(F)F)ccc1N1CCOCC1 | -9.83% (inactive)
CCOc1ccc2nc(SCC(=O)c3ccc(Cl)s3)sc2c1 | -9.42% (inactive)
C[C@@H]1O[C@@H](OC[C@@H]2O[C@H](Oc3c(-c4ccc(O)cc4)oc4cc(O)cc(O)c4c3=O)[C@@H](O)[C@H](O)[C@H]2O)[C@H](O)[C@H](O)[C@H]1O | 0.405% (inactive)
CC(C)N1CCCC(C)(C(=O)Nc2nc3ccccc3n2C)C1 (configuration not stated) | -8.91% (inactive)
CCn1c(SCC(=O)NC2CC2)nnc1-c1ccccc1 | -6.27% (inactive)
COc1ccc(S(=O)(=O)NC(C)C(=O)Nc2ccccc2F)cc1 (configuration not stated) | -4.66% (inactive)
Cn1cc(Cl)c(C(=O)OCC(=O)Nc2ccccc2)n1 | -7.99% (inactive)
Cc1noc(C)c1S(=O)(=O)Nc1ccc2c(c1)CC(=O)N([C@H](C)CO)C[C@H](C)[C@H](CN(C)S(C)(=O)=O)O2 | 1.83% (inactive)
O=c1c(OC2OC(CO)C(O)C(O)C2O)c(-c2ccc(O)c(O)c2)oc2cc(O)cc(O)c12 (configuration not stated) | -0.384% (inactive)
COc1cc(C(C)=O)ccc1OCC(=O)NCCCn1nc(C)cc1C | -1.82% (inactive)
C[C@H](CO)N1C[C@H](C)[C@H](CN(C)Cc2ccccc2)Oc2ccc(NC(=O)Nc3ccccc3)cc2CC1=O | -11.2% (inactive)
COc1ccc(/C(C)=N/NC(=O)CNC(=O)c2cccs2)cc1 | -6.13% (inactive)
C[C@@H]1CN([C@H](C)CO)C(=O)c2cc(NC(=O)Cc3cn(C)c4ccccc34)ccc2O[C@@H]1CN(C)S(=O)(=O)c1ccc(F)cc1 | -8.29% (inactive)
O=C1C[C@@H](c2ccc(O[C@@H]3O[C@H](CO)[C@@H](O)[C@H](O)[C@H]3O)cc2)Oc2cc(O)ccc21 | -5.71% (inactive)
